Data taken from patent US20070061084A1, “Method, system, and knowledge repository for identifying a secondary metabolite from a microorganism” (Ecopia BioSciences, Inc., priority 2002, published 2007).
Converted amounts (≈) assume the structure as drawn. Blank lines part the entries; values can stand above or below the compound they belong to.

Key:
[1] = system: Saccharomyces cerevisiae FHCRC 50514; assay: Disk diffusion assay, antifungal bioactivity; assay type: cell-based; conditions: 37° C., 24 hours
Procedure: Antifungal bioactivity of Compound 1 (0506), in comparison to Amphotericin B, against Saccharomyces cerevisiae FHCRC 50514 was determined using a disk diffusion assay. Such an assay is commonly used to reveal activity of antifungal drugs against fungi (Wong G K, Griffith S, Kojima I and Demain A L, J. Antibiotics, 51(5): 487-491, 1998).
Inoculum (100 μL) was added to 100 mL of RPMI agar (kept at 55° C.) to give a final suspension of about 1×10^5 CFU/mL, and poured into 150 mm Petri dishes. Plates were used immediately upon setting of the agar.
Compound 1 (0506) was diluted in DMSO to a concentration of 3.2 mg/mL. A 20 μL sample (64 μg) was deposited on the agar surface of prepared plates. Amphotericin solution in DMSO (5 mg/mL; 10 μL; 50 μg) was also deposited, in a separate location, on the agar surface. A negative control (10 μL of stock solution) was also deposited in a separate location on the surface of the agar. The plates were incubated at 37° C. for 24 hours.

[2] = molecular target: T1, Angiotensin Converting Enzyme (Oryctolagus cuniculus, UniProt P12822); assay: ACE enzyme inhibition assay (spectrometric quantitation of FAPGG); assay type: biochemical; conditions: 10 μM in 1% DMSO; rabbit lung enzyme
T1 construct: ACE: Source: rabbit lung; from tissue; host or cells: rabbit lung
T1 sequence (P12822 34-1310): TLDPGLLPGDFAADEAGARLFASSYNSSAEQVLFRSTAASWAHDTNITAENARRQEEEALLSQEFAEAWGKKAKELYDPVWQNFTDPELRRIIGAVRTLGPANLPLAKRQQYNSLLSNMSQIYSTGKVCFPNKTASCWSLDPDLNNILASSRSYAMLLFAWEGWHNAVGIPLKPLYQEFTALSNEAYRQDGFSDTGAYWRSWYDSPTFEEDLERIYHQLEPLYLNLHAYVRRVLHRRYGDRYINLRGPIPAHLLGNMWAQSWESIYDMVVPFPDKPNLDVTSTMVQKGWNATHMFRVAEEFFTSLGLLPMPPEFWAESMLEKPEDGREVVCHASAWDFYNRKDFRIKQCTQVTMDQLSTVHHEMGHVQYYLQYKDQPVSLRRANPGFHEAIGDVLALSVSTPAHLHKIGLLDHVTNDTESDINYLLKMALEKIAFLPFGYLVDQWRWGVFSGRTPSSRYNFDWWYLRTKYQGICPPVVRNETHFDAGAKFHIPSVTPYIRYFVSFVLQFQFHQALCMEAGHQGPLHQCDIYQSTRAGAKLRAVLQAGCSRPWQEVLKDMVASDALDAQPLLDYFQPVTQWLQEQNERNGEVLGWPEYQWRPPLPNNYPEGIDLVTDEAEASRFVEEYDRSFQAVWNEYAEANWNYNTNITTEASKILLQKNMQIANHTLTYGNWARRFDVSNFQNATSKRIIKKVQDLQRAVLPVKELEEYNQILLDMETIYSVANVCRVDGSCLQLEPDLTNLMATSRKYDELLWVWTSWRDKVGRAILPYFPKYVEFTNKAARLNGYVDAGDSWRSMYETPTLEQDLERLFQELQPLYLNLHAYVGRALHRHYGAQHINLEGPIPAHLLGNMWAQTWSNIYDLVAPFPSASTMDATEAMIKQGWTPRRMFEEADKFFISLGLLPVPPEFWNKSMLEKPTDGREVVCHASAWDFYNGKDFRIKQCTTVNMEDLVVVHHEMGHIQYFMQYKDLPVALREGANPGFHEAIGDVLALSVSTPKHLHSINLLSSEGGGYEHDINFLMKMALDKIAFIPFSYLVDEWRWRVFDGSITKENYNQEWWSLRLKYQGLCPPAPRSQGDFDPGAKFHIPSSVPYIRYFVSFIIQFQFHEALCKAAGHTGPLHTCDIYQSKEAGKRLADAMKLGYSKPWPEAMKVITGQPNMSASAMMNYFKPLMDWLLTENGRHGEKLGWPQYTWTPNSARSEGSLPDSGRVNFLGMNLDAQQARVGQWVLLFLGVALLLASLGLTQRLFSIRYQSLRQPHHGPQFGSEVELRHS

[3] = molecular target: T2, Protein Serine/Threonine Kinase MEK1 (Oryctolagus cuniculus, UniProt P29678); assay: MEK1 enzyme inhibition assay (Elisa quantitation of MBP-P); assay type: biochemical; conditions: 10 μM in 1% DMSO; rabbit recombinant E. coli
T2 construct: made in house; host or cells: E. coli

[4] = molecular target: T3, Adenosine A3 Receptor (Homo sapiens, UniProt P0DMS8); assay: Adenosine A3 radioligand binding assay; design: expressed in transfected cells; host or cells: CHO-K1 cells; conditions: 10 μM in 1% DMSO; human recombinant CHO-K1 cells; negative value = stimulation of binding
T3 sequence (P0DMS8 1-318): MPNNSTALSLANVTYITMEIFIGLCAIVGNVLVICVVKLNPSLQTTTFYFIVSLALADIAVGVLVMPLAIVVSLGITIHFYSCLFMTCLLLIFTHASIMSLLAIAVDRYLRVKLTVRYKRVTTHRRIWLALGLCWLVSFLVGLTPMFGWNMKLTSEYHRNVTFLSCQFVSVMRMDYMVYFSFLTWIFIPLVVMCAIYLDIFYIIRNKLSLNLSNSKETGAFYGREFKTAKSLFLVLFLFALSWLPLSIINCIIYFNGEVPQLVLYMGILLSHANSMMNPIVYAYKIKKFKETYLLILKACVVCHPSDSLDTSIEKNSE

[5] = system: Saccharomyces cerevisiae Δpdr1/pdr3/erg6 (FHCRC 50514); assay: Broth dilution antifungal susceptibility (NCCLS M27A), MIC; conditions: 48 h, read-out: minimum inhibitory concentration (MIC)
[6] = molecular target: T3, Adenosine A3 Receptor; conditions: radioligand, historical value; cited from earlier work
[7] = system: Candida indicators; assay: Bioactivity screen of HPLC/MS fractions of organism 100 extracts; assay type: cell-based; conditions: compound of mass 1113 Da from organism 100 extracts
Procedure: An extract containing the putative polyene was obtained from organism 100 using a metabolomic approach to identify conditions under which the product of locus 100C was expressed. This approach obtains analytical measurement of all low molecular weight metabolites in a given organism at a specific time when grown under specific culture conditions. Organism 100 was grown in 48 different media, namely AA, AB, AC, BA, CA, CB, CI, DA, DY, DZ, EA, ES, ET, FA, GA, IB, JA, KA, KE, LA, MA, MC, MU, NA, NE, NF, NG, OA, PA, PB, QB, RA, RB, RC, RM, SF, SP, TA, VA, VB, WA, WS, XA, YA, ZA. Metabolites were extracted from whole cell cultures by adding of an equal volume of methanol. After removal of solid debris, the extract was concentrated and injected into an HPLC/MS system in which the metabolites were analyzed to obtain UV and mass data and purified fractions are collected in 96-well plates and assayed for multiple activities including antibiotic activity against gram-positive and gram-negative bacteria, and fungi.
Finally, the extracts generated by growth of organism 100 under each of the 48 media were analyzed for metabolites having physical, chemical and biological characteristics of polyenes. […]

T2 sequence (P29678 whole entry): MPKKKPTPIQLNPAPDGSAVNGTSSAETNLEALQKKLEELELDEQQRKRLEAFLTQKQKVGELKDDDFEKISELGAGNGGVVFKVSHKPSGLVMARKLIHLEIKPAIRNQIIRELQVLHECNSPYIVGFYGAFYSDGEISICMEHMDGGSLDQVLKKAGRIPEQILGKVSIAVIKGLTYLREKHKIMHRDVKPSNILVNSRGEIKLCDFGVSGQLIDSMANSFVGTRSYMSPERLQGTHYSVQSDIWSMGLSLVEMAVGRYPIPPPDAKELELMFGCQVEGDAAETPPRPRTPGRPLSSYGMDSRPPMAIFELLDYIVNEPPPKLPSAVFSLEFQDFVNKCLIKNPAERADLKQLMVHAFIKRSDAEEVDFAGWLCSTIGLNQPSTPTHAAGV

SMILES: C[C@@H]1[C@H](O)[C@@H](C)/C=C/C=C/C=C/C=C/C=C/C=C/C=C/[C@H](O[C@@H]2O[C@H](C)[C@@H](O)[C@H](N)[C@@H]2O)C[C@@H]2O[C@](O)(C[C@@H](O)C[C@@H](O)[C@H](O)CC[C@@H](O)C[C@@H](O)CC(=O)O[C@H]1C)C[C@H](O)[C@H]2C(=O)O [Amphotericin B, reference compound]
- zone of inhibition (diameter) ([1]; at 50 μg deposited on agar): 23.9 mm

- inhibition at 10 µM [2]: 50%
- inhibition at 10 µM [3]: 63%
- inhibition at 10 µM [4]: -101%
SMILES: CNC(CCCN(O)C(=O)C(CO)NC(=O)C(N)CCCN(C=O)C(=N)N)C(=O)NC(CO)C(=O)NC(CO)C(=O)NC(CCC(N)=O)C(=O)O (stereo not drawn) [Compound 1 (0506)]
- zone of inhibition (diameter) ([1]; at 64 μg deposited on agar): 36.4 mm

SMILES: C/C=C(\C)C(O)C(C)/C=C/C=C(\C)CCC(O)CC1=C(C)C(=O)C(C)(O)O1 (stereo not drawn) [Compound 2]
- MIC [5]: 64 µg/mL (≈ 169 µM)

SMILES: OC(Cn1cncn1)(Cn1cncn1)c1ccc(F)cc1F [Fluconazole, reference compound]
- MIC [5]: 0.25 to 0.5 µg/mL (≈ 0.816 to 1.63 µM)

SMILES: COc1cc2nc(N3CCN(C(=O)c4ccco4)CC3)nc(N)c2cc1OC [[H3] Prazosin, Prazosin]
- Kd [6]: 0.29 nM

SMILES: CC1/C=C/C=C/C=C/C=C/C=C/C=C/C=C/C(OC2O[C@H](C)C(O)[C@H](N)C2O)CC2OC(O)(CC(O)CC(O)CC(O)CC(O)C[C@H](O)CC(O)CC(=O)OC1C(C)CCC(O)CC(=O)c1ccc(N)cc1)CC(O)C2C(=O)O (stereo partly drawn) [ayfactin]
- antifungal activity [7]: antifungal activity
